Results reported in publication PMC4391943, “Novel Epigallocatechin-3-Gallate (EGCG) Derivative as a New Therapeutic Strategy for Reducing Neuropathic Pain after Chronic Constriction Nerve Injury in Mice” (PLoS ONE, 2015).
Where two headings read alike, the source gives them in different places.

How the values were obtained:
[1] = design: method as in PMID 22559865; settings: daily doses of 5, 25 or 40 mg/Kg; cited from earlier work
[2] = Hepatic, renal and hematological function serum markers in treated mice; format: in vivo, Balb/c; settings: for Hematocrit / Hemoglobin / Lymphocytes / Monocytes / Neutrophils / platelet count: Balb/c; for ALP (alkaline phosphatase), hepatic function / ALT (alanine transaminase), hepatic function / AST (aspartate transaminase), hepatic function / BUN (urea), renal function / Creatinin, renal function: Balb/c serum

Compound: O=C(Oc1cccc2c(OC(=O)c3cc(O)c(O)c(O)c3)cccc12)c1cc(O)c(O)c(O)c1 [Compound 23, 1,5-Bis [(3,4,5-trihydroxybenzoyl)oxy] naphthalene]
- hepatic, renal and hematological function serum markers vs control [1]: no significant alteration

Compound: O=C(Oc1ccc(-c2ccc(OC(=O)c3cc(O)c(O)c(O)c3)cc2)cc1)c1cc(O)c(O)c(O)c1 [Compound 30, 4,4′-Bis [(3,4,5-trihydroxybenzoyl)oxy]-1,1′-biphenyl]
- Hematocrit ([2]; 50 mg/Kg): 42.4 ± 2.2%
- Hemoglobin ([2]; 50 mg/Kg): 14.2 ± 0.8 g/dL
- Lymphocytes ([2]; 50 mg/Kg): 51.2 ± 13.9%
- Monocytes ([2]; 50 mg/Kg): 1.4 ± 0.1%
- Neutrophils ([2]; 50 mg/Kg): 32.0 ± 22.9%
- platelet count ([2]; 50 mg/Kg): 826 10^3/µL
- ALP (alkaline phosphatase), hepatic function ([2]; 50 mg/Kg): 97.2 ± 20.3 U/L
- ALT (alanine transaminase), hepatic function ([2]; 50 mg/Kg): 210.3 ± 28.2 U/L
- AST (aspartate transaminase), hepatic function ([2]; 50 mg/Kg): 266.5 + 80.3 U/L
- BUN (urea), renal function ([2]; 50 mg/Kg): 21.9 ± 7.5 mg/dL
- Creatinin, renal function ([2]; 50 mg/Kg): 0.30 ± 0.1 mg/dL
- Hematocrit ([2]; 75 mg/Kg): 38.3 ± 2.8%
- Hemoglobin ([2]; 75 mg/Kg): 13.6 ± 0.3 g/dL
- Lymphocytes ([2]; 75 mg/Kg): 50.2 ± 7.5%
- Monocytes ([2]; 75 mg/Kg): 1.9 ± 1.4%
- Neutrophils ([2]; 75 mg/Kg): 30.7 ± 8.1%
- platelet count ([2]; 75 mg/Kg): 849 10^3/µL
- ALP (alkaline phosphatase), hepatic function ([2]; 75 mg/Kg): 86.5 ± 30.3 U/L
- ALT (alanine transaminase), hepatic function ([2]; 75 mg/Kg): 290.2 + 31 U/L
- AST (aspartate transaminase), hepatic function ([2]; 75 mg/Kg): 320.3 + 45.5 U/L
- BUN (urea), renal function ([2]; 75 mg/Kg): 21.1 ± 6.8 mg/dL
- Creatinin, renal function ([2]; 75 mg/Kg): 0.31 ± 0.1 mg/dL
- hepatic, renal and hematological function serum markers vs control ([2]; daily doses of 50 and 75 mg/Kg (S2 Table)): no significant alteration
